Measurements as given in paper PMC7906907, “Targeting STAT3 by a small molecule suppresses pancreatic cancer progression” (Oncogene, 2021).

Tests used:
STAT3^127–722 protein = target: T1, STAT3^127–722 protein (Homo sapiens, UniProt P40763); assay: Surface plasmon resonance (SPR) assay; assay type: binding
T1 construct: made in house
Protocol: Surface plasmon resonance (SPR) analysis was conducted with a Biacore T200 instrument (GE Healthcare) with CM5 sensor chip (GE Healthcare). To test N4 binding of STAT3^127–722 protein, serially diluted concentrations of N4 were injected into the flow system. Experiments were conducted using phosphate buffered saline (PBS) and the analyte was injected at the flow rate of 30 μL/min. The association time was 60 s and the dissociation time was 30 s. Since N4 was dissolved in PBS containing 5% dimethyl sulfoxide and a solvent correction assay was performed to adjust the results. STAT3^127–722 protein was immobilized on the sensor chip (CM5) using the amine-coupling method according to standard protocols. N4 or Stattic at various concentrations were injected into the flow system. […] The KD values were calculated with the kinetics and affinity analysis option of Biacore T200 plus evaluation software (version 3.0).

STAT3 dimerization = target: T2, STAT3 dimerization (Homo sapiens, UniProt P40763); assay: STAT3 dimerization experiment (immunoprecipitation); assay type: cell-based; settings: PANC-1 cells, 2 μM, with or without IL-6 stimulation
T2 construct: endogenous in cells; host or cells: PANC-1
Source text: (§1) Fig. 3 N4 interacts with the STAT3-SH2 domain and interferes with the STAT3-EGFR and STAT3-NF-κB interactions. […] C–E The binding between N4 and STAT3 was examined in (C) SPR and (D) MST experiments. His-STAT3^127-722 protein was purified and used to examine the affinity between STAT3 and N4. (E) The binding between N4 and STAT3^SH2 was confirmed in MST assays. STAT3-SH2 protein was purified and labeled. N4 was serially diluted and mixed with equal volumes of labeled STAT3^SH2 protein. The MST signal was measured, and the data were analyzed by MO analysis software. F, G The FLAG-tag and HA-tag STAT3 expression plasmid was transfected into 293 T cells, followed by the addition of the indicated concentrations of N4. After 24 h, cells were lysed, and immunoprecipitation experiments were performed as described in Materials and Methods. H N4 represses STAT3 dimerization in pancreatic cancer cells. I After a 24 h treatment with 2 μM N4, pancreatic cancer cells were stimulated with IL-6 for 30 min. Cell lysates were immunoprecipitated with STAT3 overnight. The precipitates were washed, suspended in non-reducing sample buffer, and boiled for 10 min. The indicated antibodies were used for western blot assays. […]
(§2) Co-IP was performed as previously described. […] After overnight incubation, the precipitates were washed and analyzed using western blotting.

[1] = test system: CAPAN-2, PANC-1, and MIAPACA-2 cells; assay: Colony formation; assay type: cell-based; settings: 7 days
Protocol: Fig. 4 N4 suppresses pancreatic cancer cell proliferation and migration and induces apoptosis. A Pancreatic cancer cells (CAPAN-2, PANC-1, MIAPACA-2, BXPC-3, HPAC, and CFPAC-1) and normal cells (HPNE, HAF) were incubated with the indicated concentration of N4 for 48 h. MTS assays were performed to detect the N4-mediated inhibition of cell proliferation. Data are shown as mean ± SD, *P < 0.05, **P < 0.01, ***P < 0.001, ****P < 0.0001, n.s. not significant by one-way ANOVA followed by multiple comparisons. B, C CAPAN-2, PANC-1, and MIAPACA-2 cells were treated with N4 (B) or C188-9 (C) for 7 days. The cells fixed and stained, and colony numbers were calculated. Experiments were carried out in triplicate with identical results obtained. […] Apoptotic cells were analyzed as described in Materials and Methods. […] In F, after 48 h transfection, transfected cells were seeded in 96-well plates, and cells were enumerated at day 1, day 2, and day 4, In G, different cells transfected with different siRNA were treated with the indicated concentrations of N4, and cell viability measured after a 48 h treatment. Data are expressed as mean ± SD, *P < 0.05, ***P < 0.001, n.s. not significant by one-way ANOVA followed by multiple comparisons. […] Data are expressed as mean ± SD, *P < 0.05, ***P < 0.001, n.s. not significant; Student’s t tests were performed. […]

STAT3-NF-κB complex = target: T3, STAT3-NF-κB complex (Homo sapiens, UniProt P40763); assay: Co-immunoprecipitation, STAT3-NF-κB interaction; assay type: cell-based; settings: PANC-1 cells, 2 μM, 24 h
T3 construct: endogenous in cells; host or cells: PANC-1
Source text: as §1, §2

T1 sequence (P40763 127-722): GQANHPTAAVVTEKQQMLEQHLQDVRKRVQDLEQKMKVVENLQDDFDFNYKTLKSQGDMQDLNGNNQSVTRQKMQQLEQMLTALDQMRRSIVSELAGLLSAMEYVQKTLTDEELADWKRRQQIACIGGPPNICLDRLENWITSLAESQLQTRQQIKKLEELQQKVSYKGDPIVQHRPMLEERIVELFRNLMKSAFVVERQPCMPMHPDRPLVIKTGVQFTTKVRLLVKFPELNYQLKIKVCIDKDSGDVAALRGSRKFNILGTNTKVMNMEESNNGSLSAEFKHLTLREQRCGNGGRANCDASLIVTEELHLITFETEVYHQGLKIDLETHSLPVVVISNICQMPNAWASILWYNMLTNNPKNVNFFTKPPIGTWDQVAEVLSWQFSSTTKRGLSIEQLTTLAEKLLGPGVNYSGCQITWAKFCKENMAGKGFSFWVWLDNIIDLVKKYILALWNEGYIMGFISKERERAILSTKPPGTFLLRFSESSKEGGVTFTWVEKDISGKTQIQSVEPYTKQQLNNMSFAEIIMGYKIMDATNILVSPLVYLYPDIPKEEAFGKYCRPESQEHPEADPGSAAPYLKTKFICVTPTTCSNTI
T3 sequence (P40763 2-770 limits assumed, one chain of several): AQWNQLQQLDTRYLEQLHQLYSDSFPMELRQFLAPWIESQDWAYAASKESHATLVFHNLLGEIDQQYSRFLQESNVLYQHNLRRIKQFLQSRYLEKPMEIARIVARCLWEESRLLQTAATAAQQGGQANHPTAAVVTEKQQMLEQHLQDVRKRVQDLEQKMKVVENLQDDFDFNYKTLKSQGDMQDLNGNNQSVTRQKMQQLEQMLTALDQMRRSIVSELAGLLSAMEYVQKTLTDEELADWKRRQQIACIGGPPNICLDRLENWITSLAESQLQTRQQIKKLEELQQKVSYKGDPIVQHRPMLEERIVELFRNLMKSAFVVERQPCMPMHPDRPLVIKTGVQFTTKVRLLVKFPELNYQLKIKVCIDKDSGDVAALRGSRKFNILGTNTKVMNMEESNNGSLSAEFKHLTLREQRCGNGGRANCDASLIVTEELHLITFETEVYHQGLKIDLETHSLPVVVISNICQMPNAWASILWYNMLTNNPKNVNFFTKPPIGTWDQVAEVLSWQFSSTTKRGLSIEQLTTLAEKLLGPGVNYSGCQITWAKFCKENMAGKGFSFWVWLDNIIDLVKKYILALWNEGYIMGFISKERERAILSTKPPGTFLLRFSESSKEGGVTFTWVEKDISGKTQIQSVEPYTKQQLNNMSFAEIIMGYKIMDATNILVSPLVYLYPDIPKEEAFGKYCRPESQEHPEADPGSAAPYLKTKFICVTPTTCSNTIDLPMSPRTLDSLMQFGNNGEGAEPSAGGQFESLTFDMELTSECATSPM
T2 sequence (P40763 2-770 limits assumed): as the sequence (P40763 2-770 limits assumed, one chain of several) above

Compound: COc1cc2c(cc1C(=O)Nc1cccc3cccnc13)CCC1C(C)(C)C(=O)C(C#N)=C[C@]21C (some centres unmarked) [N4]
- Kd (STAT3^127–722 protein; SPR, STAT3^127–722 immobilized on CM5 chip, 25 °C): 1.04 µM
- improvement of binding affinities to STAT3 than Stattic (STAT3^127–722 protein; in FP and SPR experiments): approximately tenfold improvement
- STAT3 dimerization (STAT3 dimerization): efficiently decreased
- colony formation, compared with C188-9 and BP-1-102 [1]: more potently inhibited
- interaction between STAT3 and NF-κB (STAT3-NF-κB complex): blocked
